Each structure is given as a SMILES string. Several values for one entry are separate records, joined by “and”; a condition that tells them apart may be missing. Identical values can stand only once.

The record followed here is patent publication US8822531B2, “Honokiol analogs and their use in treating cancers” (priority 2007, dated 2014).

The subject of this experiment is tumor cells. Nature of the experiment: Tumor volume in nude mice injected subcutaneously with tumor cells, treated with honokiol diepoxide. To be noted: 40 mg/kg daily intraperitoneally. Format: in vivo. The procedure:
Nude mice were injected subcutaneously with approximately one million tumor cells. Once tumors became visible, they were treated with 40 mg/kg daily of honokiol diepoxide. The compound was reconstituted in 100 microliters of ethanol and diluted with 900 microliters of 20% Intralipid, and 0.3 ml of this mixture was injected intraperitoneally daily. Tumors were measured with vernier calipers, and tumor volume was calculated using the formula (width^2×length)0.52, where width is the smallest dimension, 2 represents squared, and […].

Consider `Oc1ccc(-c2cc(CC3CO3)ccc2O)cc1CC1CO1` (stereo not shown) [Honokiol Epoxide, honokiol diepoxide], for which the “Average (tumor volume)” value (group average, in mm³ (unit assumed)) is given as 433.3632. The “Tumor Volume” value (individual animal, volume = (width^2 x length) x 0.52, 40 mg/kg, in mm³ (unit assumed)) is 385.2 and 914.8568 and 0. In addition, for the setting “individual animal, vernier calipers, 40 mg/kg”, the “W (tumor width)” value was 8.59 and 11 and 0. Further, the “L (tumor length)” value (individual animal, vernier calipers, 40 mg/kg, in mm (unit assumed)) is 10.04 and 14.54 and 0.
